Measurements published in paper PMC12707346, “Discovery and validation of small molecule stabilizers of mutant triose phosphate isomerase (TPI) as potential lead candidates for TPI deficiency” (SLAS discovery : advancing life sciences R & D, 2025).
Like-named read-outs stand apart in the source and are kept apart here.

Assay: Mouse pharmacokinetics, 10 mg/kg i.p.
Assay type: in vivo, CD-1 mice
Conditions: CD-1, plasma, ip, 10 mg/kg intraperitoneal
Experimental: Mouse pharmacokinetics (PK) Mouse PK studies were performed exactly as described in [18-20] (except that Molport 002–877–424 was the test compound at 10 mg/kg i.p.) by Touchstone Biosciences (Ply-mouth Meeting, PA), following the National Research Council guide for the care and use of laboratory animals to ensure proper care, use, and human treatment of the animals used in the study, adhering to generally accepted procedures for animal housing, dosing and blood sampling, and following AVMA guidelines for euthanasia. All procedures were approved by an institutional review panel.
Plasma concentrations were measured as described to determine a concentration vs. time profile. The area under the plasma concentration vs time curve (AUC) was calculated using the linear trapezoidal method. Fitting of the data to obtain pharmacokinetic parameters was carried out using non-compartmental analysis. Key PK parameters reported following i.p. administration are as follows: terminal half-life t1/2, initial plasma concentration C0, area under the plasma concentration vs. time curve AUC, volume of distribution at steady-state Vss, total plasma clearance CLp, and mean residence time MRT. All parameters are expressed for individual animals as well as mean, standard deviation, and coefficient of variation.

**Q.** With c1ccc(-c2nnc(-c3ccccn3)nc2NC2CCCCC2)cc1 [MolPort-002-877-424, C1CCC(CC1)Nc2nc(nnc2c3ccccc3)c4ccccn4] as the compound, how does the Tmax read?
**A.** ≤ 0.5 h

**Q.** And the Cmax (read-out: peak plasma concentration (Cmax))?
**A.** 9910 ng/mL

**Q.** What about the Cmax (read-out: peak plasma concentration (Cmax), molar) of the same compound?
**A.** ~30 µM

**Q.** What about the half-life (read-out: terminal half-life (t1/2) (converted)) of the same compound?
**A.** 4.64 h

**Q.** And the AUC(0-inf) (read-out: total systemic exposure (AUCinf))?
**A.** 66000 ng·h/mL

**Q.** What about the concentration at 24 h (at 24 h, read-out: last measurable plasma concentration) of the same compound?
**A.** 240 ng/mL
